Measured values reported in the kinase profiling compilation of Christmann-Franck et al. (2016).

How the values were obtained:
Experiment in all cases: KINOMEscan competition binding
Settings in all cases: compound 1.0 µM
CAMK2D (human) = CAMK2D (human) (UniProt Q13557)
DYRK2 (human) = DYRK2 (human) (UniProt Q92630)
MERTK (human) = MERTK (human) (UniProt Q12866)
EPHA8 (human) = EPHA8 (human) (UniProt P29322)
MAP3K12 (human) = MAP3K12 (human) (UniProt Q12852)
CSNK1E (human) = CSNK1E (human) (UniProt P49674)
RPS6KA4 KD2 (human) = RPS6KA4 KD2 (human) (UniProt O75676)
MATK (human) = MATK (human) (UniProt P42679)
SRPK3 (human) = SRPK3 (human) (UniProt Q9UPE1)
CASK (human) = CASK (human) (UniProt O14936)
NEK7 (human) = NEK7 (human) (UniProt Q8TDX7)
EPHA6 (human) = EPHA6 (human) (UniProt Q9UF33)
STK16 (human) = STK16 (human) (UniProt O75716)
Chain of STK16 (human) (O75716 whole entry, looked up): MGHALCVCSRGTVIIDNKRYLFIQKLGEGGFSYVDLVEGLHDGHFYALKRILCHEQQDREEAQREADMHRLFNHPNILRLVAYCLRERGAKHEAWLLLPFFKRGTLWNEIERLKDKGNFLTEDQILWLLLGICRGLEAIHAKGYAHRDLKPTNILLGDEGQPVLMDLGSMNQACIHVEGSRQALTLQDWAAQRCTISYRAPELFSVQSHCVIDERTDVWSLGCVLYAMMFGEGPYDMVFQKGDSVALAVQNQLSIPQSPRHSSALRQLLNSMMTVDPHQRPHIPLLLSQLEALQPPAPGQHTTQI

MYLK4 (human) = MYLK4 (human) (UniProt Q86YV6)
Chain of MYLK4 (human) (Q86YV6 whole entry, looked up): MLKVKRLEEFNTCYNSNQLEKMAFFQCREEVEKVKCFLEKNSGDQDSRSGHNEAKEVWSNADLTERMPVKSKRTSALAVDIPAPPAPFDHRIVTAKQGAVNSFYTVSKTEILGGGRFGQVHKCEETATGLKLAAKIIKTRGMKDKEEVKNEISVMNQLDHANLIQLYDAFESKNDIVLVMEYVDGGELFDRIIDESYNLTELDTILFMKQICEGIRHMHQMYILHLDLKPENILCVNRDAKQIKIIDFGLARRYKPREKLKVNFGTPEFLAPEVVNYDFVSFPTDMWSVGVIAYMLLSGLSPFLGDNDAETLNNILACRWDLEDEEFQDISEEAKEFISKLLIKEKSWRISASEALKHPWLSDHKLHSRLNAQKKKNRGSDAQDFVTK

RPS6KA3 KD1 (human) = RPS6KA3 KD1 (human) (UniProt P51812)
MAP3K9 (human) = MAP3K9 (human) (UniProt P80192)
Chain of MAP3K9 (human) (P80192 whole entry, looked up): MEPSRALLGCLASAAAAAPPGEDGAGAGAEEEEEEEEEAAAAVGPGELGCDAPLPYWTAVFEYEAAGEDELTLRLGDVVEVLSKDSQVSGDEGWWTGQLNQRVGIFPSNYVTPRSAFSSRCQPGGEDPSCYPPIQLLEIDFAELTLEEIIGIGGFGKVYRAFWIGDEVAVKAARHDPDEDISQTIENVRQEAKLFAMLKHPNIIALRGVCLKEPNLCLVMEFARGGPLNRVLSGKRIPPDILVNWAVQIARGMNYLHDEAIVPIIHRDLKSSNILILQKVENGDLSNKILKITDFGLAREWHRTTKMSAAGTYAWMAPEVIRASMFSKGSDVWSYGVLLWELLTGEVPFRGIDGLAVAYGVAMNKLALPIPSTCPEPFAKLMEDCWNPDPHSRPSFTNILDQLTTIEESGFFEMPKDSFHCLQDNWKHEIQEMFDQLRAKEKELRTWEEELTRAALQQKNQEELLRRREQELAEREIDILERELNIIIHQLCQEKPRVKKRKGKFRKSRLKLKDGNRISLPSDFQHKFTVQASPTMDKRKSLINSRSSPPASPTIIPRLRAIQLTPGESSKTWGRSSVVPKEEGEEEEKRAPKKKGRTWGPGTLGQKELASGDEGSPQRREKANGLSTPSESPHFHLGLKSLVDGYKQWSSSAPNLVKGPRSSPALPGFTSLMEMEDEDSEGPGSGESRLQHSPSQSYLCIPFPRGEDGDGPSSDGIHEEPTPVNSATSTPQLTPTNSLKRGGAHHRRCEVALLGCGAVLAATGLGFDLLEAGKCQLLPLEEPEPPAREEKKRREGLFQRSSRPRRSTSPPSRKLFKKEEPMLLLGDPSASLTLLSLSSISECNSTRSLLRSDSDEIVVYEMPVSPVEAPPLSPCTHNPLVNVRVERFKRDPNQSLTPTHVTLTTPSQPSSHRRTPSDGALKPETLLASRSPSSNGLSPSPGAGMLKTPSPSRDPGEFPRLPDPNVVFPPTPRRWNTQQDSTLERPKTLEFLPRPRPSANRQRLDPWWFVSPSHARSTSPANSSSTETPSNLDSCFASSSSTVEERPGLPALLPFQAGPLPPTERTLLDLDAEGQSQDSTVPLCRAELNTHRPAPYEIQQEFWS

[1] = target: TYK2 JH2 pseudokinase (human) (UniProt P29597)
ADCK3 (human) = ADCK3 (human) (UniProt Q8NI60)
PKN2 (human) = PKN2 (human) (UniProt Q16513)
[2] = test system: FLT3 (human), P36888 [D835H]
SIK3 (human) = SIK3 (human) (UniProt Q9Y2K2)
Chain of SIK3 (human) (Q9Y2K2 whole entry, looked up): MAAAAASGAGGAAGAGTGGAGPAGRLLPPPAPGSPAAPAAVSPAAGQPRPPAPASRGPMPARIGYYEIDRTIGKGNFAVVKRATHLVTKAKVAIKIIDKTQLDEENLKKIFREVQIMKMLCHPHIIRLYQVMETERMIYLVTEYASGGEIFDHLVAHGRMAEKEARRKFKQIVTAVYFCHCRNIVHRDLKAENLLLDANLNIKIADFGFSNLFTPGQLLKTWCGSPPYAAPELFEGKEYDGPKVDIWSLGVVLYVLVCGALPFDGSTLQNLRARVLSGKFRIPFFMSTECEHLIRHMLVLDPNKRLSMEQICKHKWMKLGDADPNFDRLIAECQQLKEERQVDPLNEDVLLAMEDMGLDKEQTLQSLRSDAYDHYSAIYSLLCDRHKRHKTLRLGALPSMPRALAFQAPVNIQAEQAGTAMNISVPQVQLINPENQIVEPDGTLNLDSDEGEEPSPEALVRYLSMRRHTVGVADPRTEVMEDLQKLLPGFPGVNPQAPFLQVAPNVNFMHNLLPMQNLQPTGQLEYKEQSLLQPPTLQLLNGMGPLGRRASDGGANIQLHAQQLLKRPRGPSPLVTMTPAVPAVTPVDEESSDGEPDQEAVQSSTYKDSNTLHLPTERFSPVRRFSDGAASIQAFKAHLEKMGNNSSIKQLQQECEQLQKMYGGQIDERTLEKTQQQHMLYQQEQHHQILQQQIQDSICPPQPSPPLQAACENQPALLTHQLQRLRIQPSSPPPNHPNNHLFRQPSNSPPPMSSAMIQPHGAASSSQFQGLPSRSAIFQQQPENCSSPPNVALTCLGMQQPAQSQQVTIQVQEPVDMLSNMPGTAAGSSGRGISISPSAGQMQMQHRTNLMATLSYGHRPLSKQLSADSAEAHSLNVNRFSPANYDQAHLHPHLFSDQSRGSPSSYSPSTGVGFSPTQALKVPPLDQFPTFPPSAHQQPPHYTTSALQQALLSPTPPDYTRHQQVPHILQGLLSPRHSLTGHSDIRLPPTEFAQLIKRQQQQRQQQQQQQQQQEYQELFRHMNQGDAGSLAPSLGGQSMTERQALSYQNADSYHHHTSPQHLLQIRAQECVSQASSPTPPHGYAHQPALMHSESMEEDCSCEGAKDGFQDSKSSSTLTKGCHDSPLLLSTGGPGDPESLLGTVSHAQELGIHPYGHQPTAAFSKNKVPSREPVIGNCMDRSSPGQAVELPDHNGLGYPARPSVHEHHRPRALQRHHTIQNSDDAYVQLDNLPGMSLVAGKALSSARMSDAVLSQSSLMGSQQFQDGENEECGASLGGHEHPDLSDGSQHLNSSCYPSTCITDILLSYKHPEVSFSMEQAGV

STK4 (human) = STK4 (human) (UniProt Q13043)
CHEK1 (human) = CHEK1 (human) (UniProt O14757)
MAP2K1 (human) = MAP2K1 (human) (UniProt Q02750)
Chain of MAP2K1 (human) (Q02750 whole entry, looked up): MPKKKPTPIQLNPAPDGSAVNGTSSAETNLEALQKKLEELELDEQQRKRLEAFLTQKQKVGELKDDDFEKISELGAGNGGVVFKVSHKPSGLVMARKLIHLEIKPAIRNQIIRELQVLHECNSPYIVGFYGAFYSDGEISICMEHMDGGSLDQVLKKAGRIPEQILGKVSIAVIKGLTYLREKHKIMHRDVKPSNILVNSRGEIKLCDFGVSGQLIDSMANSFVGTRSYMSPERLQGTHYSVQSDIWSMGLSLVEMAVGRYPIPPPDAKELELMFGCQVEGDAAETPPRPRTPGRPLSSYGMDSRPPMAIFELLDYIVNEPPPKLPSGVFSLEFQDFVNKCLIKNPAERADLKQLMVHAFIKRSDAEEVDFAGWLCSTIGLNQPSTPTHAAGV

[3] = test system: ABL1 (human), P00519 [E255K]
GRK1 (human) = GRK1 (human) (UniProt Q15835)
[4] = test system: FLT3 (human), P36888 [N841I]
PIP4K2B (human) = PIP4K2B (human) (UniProt P78356)
EPHA4 (human) = EPHA4 (human) (UniProt P54764)
HIPK3 (human) = HIPK3 (human) (UniProt Q9H422)
PLK4 (human) = PLK4 (human) (UniProt O00444)
Chain of PLK4 (human) (O00444 whole entry, looked up): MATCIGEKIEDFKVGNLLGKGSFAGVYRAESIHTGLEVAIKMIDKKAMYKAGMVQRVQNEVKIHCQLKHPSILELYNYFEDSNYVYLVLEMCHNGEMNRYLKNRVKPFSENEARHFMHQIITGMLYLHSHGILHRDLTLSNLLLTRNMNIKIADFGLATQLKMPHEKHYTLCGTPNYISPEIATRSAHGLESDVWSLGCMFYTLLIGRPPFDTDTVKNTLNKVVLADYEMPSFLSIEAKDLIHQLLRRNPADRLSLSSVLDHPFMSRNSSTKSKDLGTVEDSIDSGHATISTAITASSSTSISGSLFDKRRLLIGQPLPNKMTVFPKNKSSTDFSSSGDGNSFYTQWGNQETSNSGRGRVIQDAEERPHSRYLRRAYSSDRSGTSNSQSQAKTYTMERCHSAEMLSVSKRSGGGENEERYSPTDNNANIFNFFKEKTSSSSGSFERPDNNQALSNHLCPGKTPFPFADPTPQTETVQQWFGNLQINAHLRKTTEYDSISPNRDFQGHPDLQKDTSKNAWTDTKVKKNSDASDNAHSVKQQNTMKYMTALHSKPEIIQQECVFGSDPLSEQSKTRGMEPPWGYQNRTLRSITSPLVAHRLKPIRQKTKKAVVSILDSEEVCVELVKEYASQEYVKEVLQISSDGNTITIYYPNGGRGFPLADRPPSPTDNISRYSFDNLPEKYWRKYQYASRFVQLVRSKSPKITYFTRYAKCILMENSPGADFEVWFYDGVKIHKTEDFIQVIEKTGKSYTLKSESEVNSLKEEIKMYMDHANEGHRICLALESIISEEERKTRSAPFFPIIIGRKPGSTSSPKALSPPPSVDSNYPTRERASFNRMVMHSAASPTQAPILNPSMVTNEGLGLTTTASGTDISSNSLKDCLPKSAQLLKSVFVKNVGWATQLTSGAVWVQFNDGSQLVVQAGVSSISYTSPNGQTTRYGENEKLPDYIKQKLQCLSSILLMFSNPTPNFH

CDK17 (human) = CDK17 (human) (UniProt Q00537)
MAP2K5 (human) = MAP2K5 (human) (UniProt Q13163)
Chain of MAP2K5 (human) (Q13163 whole entry, looked up): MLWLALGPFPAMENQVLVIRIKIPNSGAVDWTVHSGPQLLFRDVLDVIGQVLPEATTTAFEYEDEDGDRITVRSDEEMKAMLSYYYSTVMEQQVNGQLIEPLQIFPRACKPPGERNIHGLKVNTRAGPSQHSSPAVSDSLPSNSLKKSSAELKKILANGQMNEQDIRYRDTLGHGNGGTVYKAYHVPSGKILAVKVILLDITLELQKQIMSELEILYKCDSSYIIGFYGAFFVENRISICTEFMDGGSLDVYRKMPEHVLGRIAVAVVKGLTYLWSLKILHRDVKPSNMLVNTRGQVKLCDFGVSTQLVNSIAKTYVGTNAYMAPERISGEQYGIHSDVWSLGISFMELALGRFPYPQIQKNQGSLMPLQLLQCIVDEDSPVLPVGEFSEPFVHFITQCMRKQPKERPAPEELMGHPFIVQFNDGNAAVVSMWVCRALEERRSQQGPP

MAPK13 (human) = MAPK13 (human) (UniProt O15264)
FES (human) = FES (human) (UniProt P07332)
PRKD1 (human) = PRKD1 (human) (UniProt Q15139)
MAPK14 (human) = MAPK14 (human) (UniProt Q16539)
TAOK1 (human) = TAOK1 (human) (UniProt Q7L7X3)
PRKD2 (human) = PRKD2 (human) (UniProt Q9BZL6)

CNc1nc(Nc2ccc(C(=O)N3CCOCC3)cc2OC)ncc1Cl
kinase still bound, per cent of control (CAMK2D (human)): 87%
kinase still bound, per cent of control (DYRK2 (human)): 91%
kinase still bound, per cent of control (MERTK (human)): 100%
kinase still bound, per cent of control (EPHA8 (human)): 100%
residual activity (MAP3K12 (human)): 100%
kinase still bound, per cent of control (CSNK1E (human)): 100%
kinase still bound, per cent of control (RPS6KA4 KD2 (human)): 23%
kinase still bound, per cent of control (MATK (human)): 100%
kinase still bound, per cent of control (SRPK3 (human)): 64%
kinase still bound, per cent of control (CASK (human)): 97%
kinase still bound, per cent of control (NEK7 (human)): 88%
kinase still bound, per cent of control (EPHA6 (human)): 100%
kinase still bound, per cent of control (STK16 (human)): 100%
kinase still bound, per cent of control (MYLK4 (human)): 100%
kinase still bound, per cent of control (RPS6KA3 KD1 (human)): 100%
kinase still bound, per cent of control (MAP3K9 (human)): 100%
kinase still bound, per cent of control [1]: 100%
kinase still bound, per cent of control (ADCK3 (human)): 100%
kinase still bound, per cent of control (PKN2 (human)): 79%
kinase still bound, per cent of control [2]: 78%
kinase still bound, per cent of control (SIK3 (human)): 100%
kinase still bound, per cent of control (STK4 (human)): 100%
kinase still bound, per cent of control (CHEK1 (human)): 100%
kinase still bound, per cent of control (MAP2K1 (human)): 89%
kinase still bound, per cent of control [3]: 52%
kinase still bound, per cent of control (GRK1 (human)): 100%
kinase still bound, per cent of control [4]: 73%
kinase still bound, per cent of control (PIP4K2B (human)): 83%
kinase still bound, per cent of control (EPHA4 (human)): 100%
kinase still bound, per cent of control (HIPK3 (human)): 47%
kinase still bound, per cent of control (PLK4 (human)): 62%
residual activity (CDK17 (human)): 97%
kinase still bound, per cent of control (MAP2K5 (human)): 100%
kinase still bound, per cent of control (MAPK13 (human)): 94%
kinase still bound, per cent of control (FES (human)): 100%
kinase still bound, per cent of control (PRKD1 (human)): 83%
kinase still bound, per cent of control (MAPK14 (human)): 100%
kinase still bound, per cent of control (TAOK1 (human)): 99%
kinase still bound, per cent of control (PRKD2 (human)): 84%
